Test results: ChEMBL document CHEMBL2417439, “Selected furanochalcones as inhibitors of monoamine oxidase” (Bioorg Med Chem Lett, 2013); call rule not given here
pIC50: −log10 of the molar value.

Legend:
[1] = biological target: T1, Amine oxidase [flavin-containing] A (Rattus norvegicus, UniProt P21396); assay: Displacement of [14C]-5HT from rat MAO-A after 20 mins by liquid scintillation counting analysis
T1 sequence (P21396 whole entry): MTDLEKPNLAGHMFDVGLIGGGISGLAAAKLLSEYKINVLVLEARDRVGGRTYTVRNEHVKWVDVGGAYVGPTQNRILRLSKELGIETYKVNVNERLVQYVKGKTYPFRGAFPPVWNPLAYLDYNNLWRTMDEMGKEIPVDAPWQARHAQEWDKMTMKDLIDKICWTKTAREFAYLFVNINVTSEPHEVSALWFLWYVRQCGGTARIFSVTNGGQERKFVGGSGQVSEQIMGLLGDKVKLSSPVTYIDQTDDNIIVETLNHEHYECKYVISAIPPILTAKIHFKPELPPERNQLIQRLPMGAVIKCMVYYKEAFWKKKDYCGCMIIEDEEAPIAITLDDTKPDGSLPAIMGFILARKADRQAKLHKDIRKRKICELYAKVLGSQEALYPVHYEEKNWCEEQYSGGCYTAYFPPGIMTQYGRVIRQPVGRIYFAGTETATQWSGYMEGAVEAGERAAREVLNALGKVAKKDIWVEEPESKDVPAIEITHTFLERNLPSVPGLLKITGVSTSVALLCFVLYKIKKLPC

[2] = biological target: T2, Amine oxidase [flavin-containing] B (Rattus norvegicus, UniProt P19643); assay: Displacement of [14C]-beta-PEA from rat MAO-B after 20 mins by liquid scintillation counting analysis
T2 sequence (P19643 whole entry): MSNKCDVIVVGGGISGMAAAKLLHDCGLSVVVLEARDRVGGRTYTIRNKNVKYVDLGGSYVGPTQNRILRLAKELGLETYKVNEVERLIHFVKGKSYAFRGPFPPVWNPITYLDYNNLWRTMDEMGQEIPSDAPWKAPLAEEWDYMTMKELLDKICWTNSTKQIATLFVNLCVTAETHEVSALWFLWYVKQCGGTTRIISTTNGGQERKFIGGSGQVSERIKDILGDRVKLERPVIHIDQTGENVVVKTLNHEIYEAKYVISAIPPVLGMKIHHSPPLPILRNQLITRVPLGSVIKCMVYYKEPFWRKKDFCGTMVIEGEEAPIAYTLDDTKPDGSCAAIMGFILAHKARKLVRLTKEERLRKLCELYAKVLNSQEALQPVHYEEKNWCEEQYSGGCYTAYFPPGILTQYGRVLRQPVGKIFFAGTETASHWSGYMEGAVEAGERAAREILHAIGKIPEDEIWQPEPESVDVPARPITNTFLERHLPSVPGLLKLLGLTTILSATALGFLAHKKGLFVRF

[3] = biological target: T3, Amine oxidase [flavin-containing] B (Homo sapiens, UniProt P27338); assay: Inhibition of human recombinant MAO-B expressed in insect cell microsomes using kynuramine as substrate assessed as formation of 4-hydroxyquinoline by fluorometric method; parameters: species or system Microsome
T3 sequence (P27338 whole entry): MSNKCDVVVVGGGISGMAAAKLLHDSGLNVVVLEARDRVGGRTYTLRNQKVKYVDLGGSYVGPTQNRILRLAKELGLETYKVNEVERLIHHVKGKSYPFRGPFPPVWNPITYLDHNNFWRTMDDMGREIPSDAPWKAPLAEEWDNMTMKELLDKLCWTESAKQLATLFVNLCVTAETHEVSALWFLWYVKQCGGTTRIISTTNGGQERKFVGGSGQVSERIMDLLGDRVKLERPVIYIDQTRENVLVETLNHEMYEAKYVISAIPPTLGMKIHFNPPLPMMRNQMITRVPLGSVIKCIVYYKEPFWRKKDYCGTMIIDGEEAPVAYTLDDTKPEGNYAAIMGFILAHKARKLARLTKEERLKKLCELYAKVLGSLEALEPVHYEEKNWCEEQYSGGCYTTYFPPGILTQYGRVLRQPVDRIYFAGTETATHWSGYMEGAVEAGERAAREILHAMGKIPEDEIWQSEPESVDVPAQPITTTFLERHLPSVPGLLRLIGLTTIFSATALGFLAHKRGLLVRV

[4] = biological target: T4, Amine oxidase [flavin-containing] A (Homo sapiens, UniProt P21397); assay: Inhibition of human recombinant MAO-A expressed in insect cell microsomes using kynuramine as substrate assessed as formation of 4-hydroxyquinoline by fluorometric method; parameters: species or system Microsome
T4 sequence (P21397 whole entry): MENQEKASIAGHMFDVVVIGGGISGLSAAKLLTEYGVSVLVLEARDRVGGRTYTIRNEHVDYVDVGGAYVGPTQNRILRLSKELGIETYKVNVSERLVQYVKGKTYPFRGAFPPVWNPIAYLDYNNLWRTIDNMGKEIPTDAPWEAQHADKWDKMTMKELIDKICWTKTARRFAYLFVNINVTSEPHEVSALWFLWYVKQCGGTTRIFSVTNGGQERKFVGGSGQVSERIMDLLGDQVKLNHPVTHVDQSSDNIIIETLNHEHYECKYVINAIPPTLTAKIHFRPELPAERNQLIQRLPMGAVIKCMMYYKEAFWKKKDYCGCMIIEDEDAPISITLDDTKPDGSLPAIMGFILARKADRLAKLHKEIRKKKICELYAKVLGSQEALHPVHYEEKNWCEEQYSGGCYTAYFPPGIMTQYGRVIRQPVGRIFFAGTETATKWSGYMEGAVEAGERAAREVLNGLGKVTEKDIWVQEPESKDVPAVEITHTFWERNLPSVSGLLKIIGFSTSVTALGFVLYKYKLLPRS

Homo sapiens = species on record: Homo sapiens; assay: Selectivity index, ratio of IC50 for human recombinant MAO-A to IC50 for human recombinant MAO-B
[5] = biological target: T4, Amine oxidase [flavin-containing] A; assay: Inhibition of human recombinant MAO-A expressed in insect cell microsomes using kynuramine as substrate assessed as formation of 4-hydroxyquinoline at 100 uM by fluorometric method; parameters: species or system Microsome

| pIC50 [1] | pIC50 [2] | pIC50 [3] | pIC50 [4] | Ratio IC50 (Homo sapiens) | inhibition (INH) [5] | SMILES |
| --- | --- | --- | --- | --- | --- | --- |
| 4.86 | 4.33 | – | – | – | – | O=C(/C=C/c1ccc(O)cc1)c1ccc(O)cc1O [ISOLIQUIRITIGENIN] |
| – | – | 6.03 | 4.73 | 20 | – | Cc1ccc(C(=O)/C=C/c2ccc(F)cc2)o1 |
| – | – | – | – | – | Not Active | COc1cccc(/C=C/C(=O)c2ccc(C)o2)c1 |
| – | – | 6.15 | 4.07 | 121 | – | Cc1ccc(C(=O)/C=C/c2ccc(Br)cc2)o1 |
